The source of these data is patent US10487054B2, “Therapeutic compounds” (REGENTS OF THE UNIVERSITY OF MINNESOTA, priority 2017, dated 2019).

In test [1] the target is T1, MEK1 (Homo sapiens, UniProt Q02750).
T1 construct: purchased Millipore (Billerica, Mass.)
Put plainly: In vitro kinase assay ([γ-32P] ATP, autoradiography). To be noted: 0.5, 1, 3, 5 or 10 μM. Type of test: biochemical. The method, then: (§1) Active TOPK (200 ng) was incubated with different concentrations of ATP (0, 10 or 100 μM) and then mixed with compound 1-conjugated Sepharose 4B beads or Sepharose 4B beads. Proteins were pulled down and analyzed by Western blot. Data are representative of 3 independent experiments that gave similar results. FIGS. 2C and 2D show compound 1 binds to either TOPK (2C) or MEK1/2 (2D) ex vivo. Lysates from HaCaT cells (500 μg) were incubated with compound 1-conjugated Sepharose 4B beads or Sepharose 4B beads alone and the pulled-down proteins were analyzed by Western blot. Data are representative of 3 independent experiments that gave similar results. FIGS. 2E and 2F show compound 1 inhibits TOPK kinase (2E) activity but not MEK1 kinase (2F) activity in vitro. Active TOPK (200 ng) was mixed with compound 1 (0, 0.5, 1, 3, or 5 μM) or HI-032 (TOPK inhibitor, 10 μM) and then incubated with a [γ-^32P] ATP mixture. Similarly, MEK1 (200 ng) was mixed with compound 1 (0, 0.5, 1, 3, 5, or 10 μM) or PD098059 (MEK1 inhibitor, 5 μM) and then incubated with a [γ-^32P] ATP mixture. For 2E and 2F, the results are visualized by autoradiography and Coomassie blue staining serves as a loading control. […]
(§2) The in vitro kinase assay was conducted according to the instructions provided by Millipore (Billerica, Mass.). […] The relative amounts of incorporated radioactivity were assessed by autoradiography.

The target of test [2] is T2, active TOPK (Homo sapiens, UniProt Q96KB5).
T2 construct: purchased SignalChem (Richmond, BC, Canada)
T2 sequence (Q96KB5 1-322): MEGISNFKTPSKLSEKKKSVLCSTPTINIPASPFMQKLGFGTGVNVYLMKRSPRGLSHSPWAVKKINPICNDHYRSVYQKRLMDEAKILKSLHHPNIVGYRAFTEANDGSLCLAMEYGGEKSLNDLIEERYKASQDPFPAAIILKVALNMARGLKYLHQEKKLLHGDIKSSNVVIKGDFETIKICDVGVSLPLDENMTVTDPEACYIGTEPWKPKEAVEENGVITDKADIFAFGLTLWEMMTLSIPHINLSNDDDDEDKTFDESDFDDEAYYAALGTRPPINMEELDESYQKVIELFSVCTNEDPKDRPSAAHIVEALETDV
The description is as above. Type of test: biochemical. The note with it: 0.5, 1, 3 or 5 μM. As for the experimental part: as §1, §2

T1 sequence (Q02750 whole entry): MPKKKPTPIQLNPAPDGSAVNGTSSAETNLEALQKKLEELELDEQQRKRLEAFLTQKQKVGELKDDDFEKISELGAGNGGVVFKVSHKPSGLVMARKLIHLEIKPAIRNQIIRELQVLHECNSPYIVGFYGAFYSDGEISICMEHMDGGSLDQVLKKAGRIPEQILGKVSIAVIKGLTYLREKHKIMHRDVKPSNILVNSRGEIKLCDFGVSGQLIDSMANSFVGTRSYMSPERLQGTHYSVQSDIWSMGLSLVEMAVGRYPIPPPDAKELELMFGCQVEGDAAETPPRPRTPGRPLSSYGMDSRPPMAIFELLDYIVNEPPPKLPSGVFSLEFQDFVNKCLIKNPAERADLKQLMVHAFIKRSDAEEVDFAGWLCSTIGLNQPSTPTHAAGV

In the case of `O=C1Nc2ccc(C34CC5CC(CC(C5)C3)C4)cc2C1=NO` [compound 1, 5-(adamantan-1-yl)-3-(hydroxyimino)indolin-2-one], the MEK1 kinase activity result in test [1] is “but not MEK1 activity”. The TOPK kinase activity result in test [2] was “effectively inhibited”.
